Data reported in patent publication US9902684B2, “Compound isolated from Isodon forrestii var. forrestii and preparation method and applications thereof” (JIANGSU PROVINCE INSTITUTE OF TRADITIONAL CHINESE MEDICINE, priority 2016, dated 2018).
Residues, ends and D or L forms follow the SMILES beside them. *: point of attachment. Cbz = O=C(OCc1ccccc1)*; CH2F = FC*

Key:
[1] = test system: HepG2 cell; experiment: Annexin V flow cytometry analysis of apoptosis; assay type: cell-based, human; conditions: FIG. 5
Experimental: (§1) Dissolving Iso A (purity >99%) in DMSO, and preserving stock solution with concentration of 40 mM in −20° C. Detecting the inhibition effects of Iso A in various cells that includes liver cancer cell, breast cancer cell, lung cancer cell, osteosarcoma cell, melanoma cell, cervical cancer cell etc., and in normal human hepatocyte L02, human embryo lung cell HFL1, human mammary epithelial cell MCF 10A. […] Among tested cells, HepG2 cell is the most sensitive to Iso A, thus HepG2 is selected as a model in follow-up experiments.

[2] = test system: HepG2 cells; experiment: Trypan blue exclusion assay, HepG2; assay type: cell-based, human; conditions: various concentrations, 24 hours; FIG. 4
Experimental: as §1

[3] = test system: human normal hepatic cell L02; experiment: Trypan blue exclusion assay, normal cells; assay type: cell-based; conditions: various concentrations, 24 hours; FIG. 4
Experimental: as §1

[4] = test system: human normal hepatic cell line L02; experiment: MTT assay, normal hepatic cell L02 growth; assay type: cell-based; conditions: various concentrations, 24 hours; FIG. 3
Experimental: as §1

[5] = molecular target: T1, Trx1 (Homo sapiens, UniProt P10599); experiment: Trx1 activity in HepG2 cells (insulin reduction/DTNB); assay type: cell-based; design: endogenous in cells; host or cells: HepG2; conditions: 10-30 μM for 8 hours; relative to 0.5% DMSO control; FIG. 7
T1 sequence (P10599 1-105): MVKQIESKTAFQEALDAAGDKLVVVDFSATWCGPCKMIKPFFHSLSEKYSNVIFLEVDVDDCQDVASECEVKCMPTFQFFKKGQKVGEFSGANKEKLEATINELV
Experimental: (§2) Methods for measuring Trx1 activity in cells or tissue samples: using lysates (20 mM HEPES (pH 7.9), 300 mM NaCl, 100 mM KCl, 10 mM EDTA and 0.1% Nonidet P-40, protease-contained inhibitor) to lyse the cells or tissue samples. Pre-treating 90 μg protein at 37° C. for 15 min by using DTT activation buffer (50 mmol/liter HEPES (pH 7.6), 1 mmol/liter EDTA, 1 mg/ml bovine serum albumin, and 2 mmol/liter dithiothreitol). Then adding 20 μl reaction mixture (200 μl of 1 M HEPES (pH 7.6), 40 μl of 0.2 mol/liter EDTA, 40 μl of NADPH (40 mg/ml)) and 500 μl insulin. Adding 5 μl thioredoxin reductase for initial reaction while adding water of same volume into the control group. Incubate the samples in 37° C. for 20 min, and then add 6 M guanidine hydrochloride of 0.25 ml and 0.4 mg/ml DTNB to terminate reaction. Detecting optical absorption of 412 nm.
Cultivate human hepatocellular carcinoma cell line HepG2 in vitro culture. […] Calculate the relative activity of Trxl in each group under the condition that negative control activity is 1.

[6] = test system: HepG2 xenograft; experiment: Murine xenograft tumor model of hepatocellular carcinoma; assay type: in vivo, BALB/c nude mouse; conditions: 15 mg/kg once daily, 15 days, vs control group
Excerpt: • a) Cell line: Human hepatocellular carcinoma cell line HepG2 is bought from the Cell Bank of Chinese Academy of Sciences for Type Culture Collection • b) Animal: 20 BALB/c male nude mouse with weight of (13±2 g), the BALB/c mice is bought from Model Animal Research Center of Nanjing University, the animal is bred under the environment without a special pathogen in the Animal Center of Jiangsu Traditional Chinese Medicine Research Institution [SCXK( ? ) 2002-0001]. • c) Pharmaceutical: Iso A 2. Experiment Method: • a) Make of a murine xenograft model ofepatocellular carcinoma: HepG2 cells in log phase are digested with trypin, and suspended with a final density of 2×10^7 cells/ml. Then, 200 μl (100 μl cells+100 μl matrigel) cell suspension is inoculated into the right subaxillary of nude mice with 1 ml injector. • b) Group and administration of experimental animal: grouping when the tumor becomes 100 mm^3 into 10 per group (same average volume per group, too big or small ones are eliminated). Grouping specifically as followings: (1) Iso A 15 mg/kg dose group, (2) solvent control group (0.5% CMC-Na). […] Antitumor effect is determined by tumor inhibition rate. […]

[7] = molecular target: T1, Trx1; experiment: Trx1 activity in xenograft tumor tissues; assay type: in vivo, BALB/c nude mouse; design: from tissue; host or cells: HepG2 xenograft tumor from BALB/c nude mice; conditions: 15 mg/kg once daily, 15 days; FIG. 12
Experimental: as §2, with “Detecting optical absorption of 412 nm.” left out
• a) Cell line: Human hepatocellular carcinoma cell line HepG2 is bought from the Cell Bank of Chinese Academy of Sciences for Type Culture Collection • b) Animal: 20 BALB/c male nude mouse with weight of (13±2 g), the BALB/c mice is bought from Model Animal Research Center of Nanjing University, the animal is bred under the environment without a special pathogen in the Animal Center of Jiangsu Traditional Chinese Medicine Research Institution [SCXK( ? ) 2002-0001]. • c) Pharmaceutical: Iso A 2. […] Antitumor effect is determined by tumor inhibition rate. […]

[8] = test system: tumor cells (liver cancer, breast cancer, lung cancer, osteosarcoma, melanoma, cervical cancer cell); experiment: MTT experiment, growth inhibition of various tumor cells; assay type: cell-based; conditions: Homo sapiens; all tested tumor cells; FIG. 2
Experimental: as §1

[9] = molecular target: T1, Trx1; experiment: In vitro Trx1 activity, Thioredoxin Activity Fluorescent Assay Kit; assay type: biochemical; design: purchased Sino Biological Inc; conditions: read-out: inhibition rate of Trx1 activity
Experimental: Trx1 protein was bought from Sino Biological Inc., Trx1 activity detection kit was bought from American Caymen Chemical cooperation.
The in vitro activity of Trx is assayed using the—Thioredoxin Activity Fluorescent Assay Kit (Caymen Chemical). According to the instructions of the kit 2 μl of Iso A with different concentrations (0.195 μM to 100 μM) is added into 0.02 μM Trx mix, following by adding 5 μl of β-NADPH into each sample to incubate in 37° C. for 30 min. Then, a fluorescent substrate is added and Trx1 activity is was recorded as the emission at 518 nm after 488 nm excitation for 30-60 min, with a Thermo Scientific Varioskan Flash fluorescent microplate reader.

[10] = Toxicity assessment in xenograft mice (weight, serum indices, blood routine); assay type: in vivo, BALB/c nude mouse; conditions: 15 mg/kg
Excerpt: • a) Cell line: Human hepatocellular carcinoma cell line HepG2 is bought from the Cell Bank of Chinese Academy of Sciences for Type Culture Collection • b) Animal: 20 BALB/c male nude mouse with weight of (13±2 g), the BALB/c mice is bought from Model Animal Research Center of Nanjing University, the animal is bred under the environment without a special pathogen in the Animal Center of Jiangsu Traditional Chinese Medicine Research Institution [SCXK( ? ) 2002-0001]. • c) Pharmaceutical: Iso A 2. Experiment Method: • a) Make of a murine xenograft model ofepatocellular carcinoma: HepG2 cells in log phase are digested with trypin, and suspended with a final density of 2×10^7 cells/ml. Then, 200 μl (100 μl cells+100 μl matrigel) cell suspension is inoculated into the right subaxillary of nude mice with 1 ml injector. • b) Group and administration of experimental animal: grouping when the tumor becomes 100 mm^3 into 10 per group (same average volume per group, too big or small ones are eliminated). Grouping specifically as followings: (1) Iso A 15 mg/kg dose group, (2) solvent control group (0.5% CMC-Na). Administrate one time every day for total 15 days. • c) Sample selection and index observation: • i. observation for normal state: before drug administration, measure the weight and tumor size (tumor volume V=long diameter×short diameter^2/2) one time every day. Observe the locomotor activity, mental state, hair, breath, diet, manure trait and reaction to outside world of the mice. After ending pharmaceutical interference, the mice are anesthetized and the blood is acquired by cardiac puncture. The serum is got by centrifugation and store in −80° C. After the skin of the tumor growing part on the right axilla of the mice is nipped by forceps, use a surgical scissors to cut the skin for exposing the tumor, then use the surgical scissors to dissect the tumor with blunt dissection and use a scale to weigh the tumor, transplanted tumor and calculate the inhibition rate. Antitumor effect is determined by tumor inhibition rate. Tumor inhibition rate (%)=[1−(average weight of tumor in experimental group/average weight of tumor in control group)]×100% • ii. Detecting apoptosis of tumor tissues with TUNEL staining: according to TUNEL apoptosis detection kit specification of Roche Inc. after fixing frozen tissue section in room temperature. • iii. Blood routine examination for assessing the marrow toxicity of Iso A, analyze ALT, AST, ALP level in plasma for assessing hepatotoxicity of Iso A, and measure the creatinine and urea nitrogen for assessing renal damage.
Fabricate mice transplanted hepatocellular carcinoma model, and group mice into control group and Iso A (15 mg/kg) administration group at random. Record the weight and tumor size one time every three days and kill the mice after 15-day-administration for detection and analysis of the tumor tissues, blood etc.

[11] = test system: hepatocellular carcinoma cell line HepG2; experiment: MTT assay, HepG2 cell growth; assay type: cell-based, human; conditions: various concentrations, 24 hours; FIG. 3
Experimental: as §1

[12] = molecular target: T1, Trx1; experiment: Mass spectrometry analysis of direct conjugation with Trx1 protein; assay type: binding; design: purchased Sino Biological Inc; conditions: 2 h room temperature, MALDI mass spectrometry; FIG. 8
Experimental: Human-derived Trx1 protein (Sino Biological Inc.) is dissolved in distilled water at a 5 mg/ml and stored. In 25 mM Tris-HCl (pH 7.4) buffer, mixi 4 μl Iso A with 140 μl human Trx1 protein to incubate for 2 h in room temperature. Samples after reaction is treated by Shimadzu Biotech Proteome kit for enzymatic hydrolysis with MonoSpin Trypsin, then desalted by MonoSpin® C18 column for mass spectrometry analysis with MALDI 7090 (SHIMADZU).

## C=C1C(=O)[C@]23C[C@H]1[C@@H](OC(C)=O)[C@H](OC(C)=O)[C@H]2[C@]1(C)C[C@H](OC(C)=O)[C@H](OC(C)=O)C(C)(C)[C@H]1[C@@H](O)C3 [Iso A, Isoforresin A]
[1]; HepG2, 10 or 20 μM Iso A, 24 hours
  Annexin V positive cells (apoptosis): increasement of Annexin V positive cells
[2]
  cell death of HepG2 cells (trypan blue exclusion): selectively trigger the death of HepG2 cells
[3]
  toxicity to normal cells (trypan blue exclusion): obviously not toxic
[4]
  inhibition of L02 cell growth (MTT): no obvious inhibitory effects
[5]
  Trx1 activity in HepG2 cells: significantly reduced
[6]; FIG. 10
  tumor volume: significantly decreased
[6]; FIG. 11
  tumor weight: significantly decreased
[7]
  Trx1 activity in the tumor tissues: significantly decreased
[8]
  IC50: < 30 µM
[9]
  inhibition at 2.5 µM: 20%
  inhibition at 5 µM: 48.6%
  inhibition at 10 µM: 98%
[10]; 15 days, xenograft murine model
  toxic or side effects on marrow, liver and kidney: no toxic or side effects
[10]; 15 days, FIG. 13
  ALP level in serum: no obvious difference
  ALT level in serum: no obvious difference
  AST level in serum: no obvious difference
[10]; 15 days, FIG. 14
  creatinine level in serum: no obvious difference
  urea nitrogen level in serum: no obvious difference
[10]; during administration, vs control group, FIG. 9
  body weight of mice: no difference in weight
[11]
  inhibition of HepG2 cell growth (MTT): inhibit the growth of HepG2 cell in a concentration-dependent manner
[12]
  direct binding/conjugation with Trx1 protein (Cys 32/35): can directly bind with Trx1 protein

## COC(=O)C[C@H](NC(=O)[C@H](C)NC(=O)[C@@H](NC(=O)OCc1ccccc1)C(C)C)C(=O)CF [Z-VAD-FMK, reference compound] (Cbz-Val-Ala-Asp(OMe)-CH2F)
[1]; HepG2
  effect of pan-caspase inhibitor on apoptosis induced by Iso A: partially inhibits the apoptosis induced by Iso A
